Results reported in publication PMC10485820 (European Journal of Pharmaceutical Sciences, 2023).
Like-named read-outs stand apart in the source and are kept apart here.

What was measured:
[1] = Apparent permeability in Caco-2 monolayer cell lines; assay type: in vitro ADME; details: human, Caco-2
Procedure: (§1) All experiments were performed in triplicate and analyzed by high-performance liquid chromatography with tandem mass spectrometry (HPLC-MS/MS). The apparent permeability coefficient (Papp) of each compound under the corresponding concentration was calculated according to Eq. (1) and listed as follows:(1) Papp=dQ/dt×1/A×C0 Where Papp was the apparent permeability coefficient (cm/s × 10^−6), dQ/dt (pmol/second) was the rate at which the compound appears in the receiver side, C0 (nM) was the initial concentration of the compound in the donor side, and A (cm^2) represented the surface area of the cell monolayer.

Caco-2 monolayer cells = assay: as above; assay type: in vitro ADME; details: from Papp A→B at 1, 5, 20 μM
Procedure: as §1

[2] = Blood-to-plasma partition ratio and fraction unbound in plasma; assay type: in vitro ADME; details: Measured (in vivo)
Source text: (§2) The development of the DLM was complex.

[3] = Renal clearance from in vivo clinical study; details: human, oral; Measured (in vivo); read-out: CLR (renal clearance) (converted)
Source text: as §2

[4] = Bioavailability in rats (unpublished); details: rat, in vivo, oral
MATE1 = molecular target: T1, MATE1 (Homo sapiens, UniProt Q96FL8); assay: Preclinical transporter substrate assessment (unpublished); assay type: in vitro ADME
T1 sequence (Q96FL8 1-570): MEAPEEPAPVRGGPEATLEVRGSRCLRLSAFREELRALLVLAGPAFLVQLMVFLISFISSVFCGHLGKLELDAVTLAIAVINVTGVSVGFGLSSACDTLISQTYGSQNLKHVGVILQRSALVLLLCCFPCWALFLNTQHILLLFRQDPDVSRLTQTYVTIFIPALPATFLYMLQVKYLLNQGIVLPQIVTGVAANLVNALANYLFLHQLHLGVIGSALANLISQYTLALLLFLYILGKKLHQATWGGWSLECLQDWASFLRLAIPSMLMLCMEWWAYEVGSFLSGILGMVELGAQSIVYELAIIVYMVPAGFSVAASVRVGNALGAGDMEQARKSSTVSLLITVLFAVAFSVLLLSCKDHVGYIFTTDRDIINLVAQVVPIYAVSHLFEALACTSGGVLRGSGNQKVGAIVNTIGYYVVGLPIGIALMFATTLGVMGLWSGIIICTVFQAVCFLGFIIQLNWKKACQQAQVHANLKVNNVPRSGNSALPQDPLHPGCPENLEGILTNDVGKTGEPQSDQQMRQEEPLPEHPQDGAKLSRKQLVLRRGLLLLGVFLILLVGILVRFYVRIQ

[5] = Single ascending dose clinical study in Chinese healthy volunteers (CTR20180791): pharmacokinetics; assay type: in vivo, human; details: for AUC / Cmax / clearance / Vd/F: human, in vivo, oral, Chinese healthy volunteers; for clearance: read-out: CL Obs (converted); for Vd/F: read-out: VZ/F Obs
[6] = 10 mg, 10 mg single dose, fasted
[7] = 25 mg, 25 mg single dose, fasted
[8] = 50 mg, 50 mg single dose, fasted
[9] = 100 mg, 100 mg single dose, fasted
[10] = 150 mg, 150 mg single dose, fasted

- Papp A→B at 2 h, 1 μM ([1]; 1 μM, 2 h, 37 °C): 25.3 ×10⁻⁶ cm/s
- Papp A→B at 2 h, 5 μM ([1]; 5 μM, 2 h, 37 °C): 29.3 ×10⁻⁶ cm/s
- Papp A→B at 2 h, 20 μM ([1]; 20 μM, 2 h, 37 °C): 40.3 ×10⁻⁶ cm/s
- Papp at 2 h ([1]; average value of Papp at different incubation concentrations, apical pH: basolateral pH 7.4: 7.4, read-out: Caco-2 permeability, model input): 31.6 ×10⁻⁶ cm/s
- Permeability classification (Caco-2 monolayer cells): high-permeability compound
- fraction unbound [2]: 0.143
- CL renal [3]: 6.22 mL/min
- bioavailability [4]: 94.5%
- Transporter substrate assessment (MATE1): not a common transport substrate
- Increase in AUC under the fed state compared with the fasted state ([5]; clinical study): 3%
- AUC ([5]; 5 mg, 5 mg single dose, fasted): 8980 ng·h/mL
- Cmax ([5]; 5 mg, 5 mg single dose, fasted): 101 ng/mL
- clearance ([5]; 5 mg, 5 mg single dose, fasted): 9.67 mL/min
- Vd/F ([5]; 5 mg, 5 mg single dose, fasted): 1.65 L/kg
- AUC [5, 6]: 17700 ng·h/mL
- Cmax [5, 6]: 237 ng/mL
- clearance [5, 6]: 9.67 mL/min
- Vd/F [5, 6]: 1.71 L/kg
- AUC [5, 7]: 40500 ng·h/mL
- Cmax [5, 7]: 413 ng/mL
- clearance [5, 7]: 10.2 mL/min
- Vd/F [5, 7]: 1.52 L/kg
- AUC [5, 8]: 90400 ng·h/mL
- Cmax [5, 8]: 981 ng/mL
- clearance [5, 8]: 9.67 mL/min
- Vd/F [5, 8]: 1.26 L/kg
- AUC ([5]; 50 mg, 50 mg single dose, fed): 92900 ng·h/mL
- Cmax ([5]; 50 mg, 50 mg single dose, fed): 834 ng/mL
- clearance ([5]; 50 mg, 50 mg single dose, fed): 9.5 mL/min
- Vd/F ([5]; 50 mg, 50 mg single dose, fed): 1.37 L/kg
- AUC [5, 9]: 218000 ng·h/mL
- Cmax [5, 9]: 2130 ng/mL
- clearance [5, 9]: 8.33 mL/min
- Vd/F [5, 9]: 1.07 L/kg
- AUC [5, 10]: 269000 ng·h/mL
- Cmax [5, 10]: 3330 ng/mL
- clearance [5, 10]: 11 mL/min
- Vd/F [5, 10]: 1.13 L/kg
- Dose linearity ([5]; within the currently selected therapeutic dose range): dose linear
SMILES: CS(=O)(=O)n1cc2c(n1)CN([C@@H]1C[C@H](N)[C@@H](c3cc(F)ccc3F)O[C@@H]1C(F)(F)F)C2 [HSK7653]
